Source: EP4563579A1, “MACROCYCLIC EGFR INHIBITOR, AND PREPARATION METHOD THEREFOR AND PHARMACEUTICAL USE THEREOF” (Abbisko Therapeutics Co., Ltd., priority 2022, dated 2024)
Like-named read-outs stand apart in the source and are kept apart here.

Experiments:
Assay type in all cases: cell-based
[1] = system: Ba/F3 EGFR-L858R-C797S (LC); assay: Cell proliferation assay (CellTiter-Glo), Ba/F3 LC; settings: Ba/F3 EGFR-L858R-C797S cells, 72 hour incubation, CTG readout
Description: (§1) • DMEM Medium (Gibco, Cat#11965118) • RPMI1640 Medium (Gibco, Cat#11875119) • Fetal Bovine Serum (FBS) (GBICO, Cat#10099-141) • CellTiter-Glo® Luminescent Cell Viability Assay Kit (Promega, Cat#G7572) 96-well, Black, Clear Flat Bottom Plate (Corning®, Cat# 3603)
(§2) • SpectraMax Multimode Microplate Reader MD, 2104-0010A; • CO2 Incubator, Thermo Scientific 3100 Series; • Biosafety Cabinet, Thermo Scientific, 1300 Series A2; • Inverted Microscope, Olympus, CKX41SF; • Siemens Refrigerator, KK25E76TI.
(§3) • 1. Cell Culture and Inoculation: • (1) Harvest cells in a logarithmic growth phase and count the cells using a […]. Test cell viability using a trypan blue exclusion method to ensure that cell viability is above 90%. • (2) Adjust the cell concentration to desired final density; and add 90 µL of cell suspension to a 96-well plate. • (3) Incubate the cells overnight at 37°C, under 5% CO2 and 95% humidity in the 96-well plate. • 2. T0 Reference Data: • (1) Add 10 µL PBS to each well of the T0 plate containing cells. • (2) Thaw the CTG reagent and equilibrate the plate to room temperature for 30 minutes. • (3) Add an equal volume of CTG solution to each well. • (4) Lyse cells by shaking on an orbital shaker for 5 minutes. • (5) Leave the plate at room temperature for 20 minutes to stabilize the luminescence signal. • (6) Read the T0 […]. • 3. Compound Dilution and Addition • (1) Add a corresponding volume of DMSO to a corresponding compound powder according to the compound information sheet to prepare a 10 mM stock solution. • (2) Prepare 1000-fold and 3.16-fold diluted compound solutions. • (3) Dilute the 1000× diluted compound solution 100-fold with PBS to prepare a 10-fold compound solution, with a maximum concentration of 10 µM, nine concentrations and 3.16-fold dilution. Then add 10 µL of the drug solution concentration to individual wells of the 96-well plate seeded with cells. Test each compound concentration in triplicate wells, and the final DMSO concentration is 0.1%. • (4) Incubate the cells in the 96-well plate containing the drug compounds at 37°C, under 5% CO2, and 95% humidity for an additional 72 hour period prior to performing the CTG analysis. • 4. Fluorescence Signal Reading • (1) Thaw the CTG reagent and equilibrate the plate to room temperature for 30 minutes. • (2) Add an equal volume of CTG solution to each well. • (3) Lyse cells by shaking on an orbital shaker for 5 minutes. • (4) Leave the plate at room temperature for 20 minutes to stabilize the […]. • (5) Read fluorescence value. • 5. Data Processing
(§4) Analyze the data by using GraphPad Prism 7.0 software, and use Non-linear S-curve regression to fit the dose-response curves, to calculate the IC50 values (in nM). The specific experiment results are presented in Table 1: [formula] Table 1: Biology Test Results

A431 WT = assay: Cell proliferation assay (CellTiter-Glo), A431 WT; settings: A431 WT cells, 72 hour incubation, CTG readout
Description: as §1, §2, §3, §4

[2] = system: Ba/F3 EGFR-L858R-T790M-C797S (LTC); assay: Cell proliferation assay (CellTiter-Glo), Ba/F3 LTC; settings: Ba/F3 EGFR-L858R-T790M-C797S cells, 72 hour incubation, CTG readout
Description: as §1, §2, §3, §4

| Structure (SMILES) | IC50 ([1]; Mus musculus, BaF3) [nM] | IC50 (A431 WT; Homo sapiens, A-431) [nM] | IC50 ([2]; Mus musculus, BaF3) [nM] | IC50 ([1]; read-out: IC50 BaF3 LC) [nM] | IC50 (A431 WT) [nM] | IC50 ([2]; read-out: IC50 BaF3 LTC) [nM] |
| --- | --- | --- | --- | --- | --- | --- |
| CN1CCC(F)(C#Cc2nn3c4cc(ncc24)Nc2ccnc(n2)-c2cnn(C)c2OCC2(CCC2)C3)CC1 [Example 12, 3'-((4-fluoro-1-methylpiperidin-4-yl)ethynyl)-1'-methyls piro(cyclobutane-1,6'-8-oxa-3-aza-4(6,1)-pyrazolo[4,3-c]pyridina-2(2,4)-pyrimidina-1 (4,5)-pyrazolacyclooctaphane)] | 124 | 629 | 61.9 | – | – | – |
| Cn1ncc2c1OCC1(CCCC1)Cn1nc(N3CCC(F)(F)C3)c3cnc(cc31)Nc1ccnc-2n1 [Example 15, 3'-(3,3-difluoropyrrolidin-1-yl)-1'-methylspiro(cyclopentane-1,6'-8-oxa-3-aza-4(6, 1)-pyrazolo[4,3-c]pyridina-2(2,4)-pyrimidina-1(4,5)-pyrazolacyclooctaphane)] | 84.4 | 1050 | 32.4 | – | – | – |
| Cn1ncc2c1OCC1(CCCC1)Cn1nc(N3CC[C@H](NC(=O)OC(C)(C)C)C3)c3cnc(cc31)Nc1ccnc-2n1 [Example 47, Tert-butyl (S)-(1-(1'-methylspiro(cyclopentane-1,6'-8-oxa-3-aza-4(6,1)-pyrazolo[4,3-c]pyridina-2(2,4)-pyrimidina-1(4,5) -pyrazolacyclooctaphane)-3 '-yl)pyrrolidin-3-yl)carbam ate] | 82 | 2570 | 35.2 | – | – | – |
| CC(=O)N[C@@H]1CCN(c2nn3c4cc(ncc24)Nc2ccnc(n2)-c2cnn(C)c2OCC2(CCCC2)C3)C1 [Example 49] | – | – | – | 59.9 | 926 | 29.6 |
| Cn1ncc2c1OCC1(CCCC1)Cn1nc(N3CC[C@@H](NC(=O)C(F)(F)F)C3)c3cnc(cc31)Nc1ccnc-2n1 [Example 50] | 86.5 | 1060 | 20.7 | – | – | – |
| C[C@H]1CCOc2c(cnn2C)-c2nccc(n2)Nc2cc3c(cn2)c(C#CC2CN(C)C2)nn31 [Example A2, (S)-1^1,5-dimethyl-4^3-((1-methylazetidin-3-yl)ethynyl)-1^1 H,4^1H-8-oxa-3-aza-4(6,1)-p yrazolo[4,3-c]pyridina-2(2,4)-pyrimidina-1(4,5)-pyrazol acyclooctaphane] | 176 | 2490 | 167 | – | – | – |
| C[C@H]1CCOc2c(cnn2C)-c2nccc(n2)Nc2cc3c(cn2)c(C#CC2CCN(C)CC2)nn31 [Example A3, (S)-1^1,5-dimethyl-4^3-((1-methylpiperidin-4-yl)ethynyl)-1^1H,4^1H-8-oxa-3-aza-4(6,1) -pyrazolo[4,3-c]pyridina-2(2,4)-pyrimidina-1(4,5)-pyra zolacyclooctaphane] | 53.3 | 1840 | 62.1 | – | – | – |

Continued by falling IC50 ([1]; Mus musculus, BaF3), values first:

| IC50 ([1]; Mus musculus, BaF3) [nM] | IC50 (A431 WT; Homo sapiens, A-431) [nM] | IC50 ([2]; Mus musculus, BaF3) [nM] | Structure (SMILES) | IC50 ([1]; read-out: IC50 BaF3 LC) [nM] | IC50 (A431 WT) [nM] | IC50 ([2]; read-out: IC50 BaF3 LTC) [nM] |
| --- | --- | --- | --- | --- | --- | --- |
| 38 | 512 | 16 | Cn1ncc2c1OCC1(CCCC1)Cn1nc(N3CC[C@H](C(C)(C)O)C3)c3cnc(cc31)Nc1ccnc-2n1 [Example 20, (S)-2-(1-(1'-methylspiro[cyclopentane-1,6'-8-oxa-3-aza-4(6,1)-pyrazolo[4,3-c]pyridina-2(2,4)-pyrimidina-1(4,5)-pyrazolacyclooctaphane]-3'-yl)pyrrolidin-3-yl)propan-2-ol] | – | – | – |
| 36.5 | 843 | 12.5 | Cn1ncc2c1OCC1(CCCC1)Cn1nc(N3CC[C@H](NC(=O)C(F)(F)F)C3)c3cnc(cc31)Nc1ccnc-2n1 [Example 56] | – | – | – |
| 35.6 | 1360 | 28.3 | Cn1ncc2c1OCC1(CCCC1)Cn1nc(C#CC3CCNCC3)c3cnc(cc31)Nc1ccnc-2n1 [Example 6, 1'-methyl-3'-(piperidin-4-ylethynyl)spiro(cyclopentane-1,6'-8-oxa-3-aza-4(6,1)-pyrazolo[4,3-c]pyridina-2(2,4)-pyrimidina-1(4,5)-pyrazolacyclooctaphane)] | – | – | – |
| 32.1 | 391 | 7.8 | COC[C@@H]1CCN(c2nn3c4cc(ncc24)Nc2ccnc(n2)-c2cnn(C)c2OCC2(CCCC2)C3)C1 [Example 17, (R)-3'-(3-(methoxymethyl)pyrrolidin-1-yl)-1'-methyls piro(cyclopentane-1,6'-8-oxa-3-aza-4(6,1)-pyrazolo[4,3-c]pyridina-2(2,4)-pyrimidina-1(4,5)-pyrazolacyclooctaphane)] | – | – | – |
| 31 | 261 | 16.4 | Cn1ncc2c1OCC1(CCCC1)Cn1nc(N3CCC(NS(C)(=O)=O)C3)c3cnc(cc31)Nc1ccnc-2n1 (stereo in doubt) [Example 52, (R)-N-(1-(1'-methylspiro(cyclopentane-1,6'-8-oxa-3-aza-4(6,1)-pyrazolo[4,3-c]pyridina-2(2,4)-pyrimidina-1(4,5) -pyrazolacyclooctaphane)-3' -yl)pyrrolidin-3-yl)methanes ulfonamide] | – | – | – |
| 25.4 | 765 | 10.9 | COCC[C@@H]1CCN(c2nn3c4cc(ncc24)Nc2ccnc(n2)-c2cnn(C)c2OCC2(CCCC2)C3)C1 [Example 18, (S)-3'-(3-(2-methoxyethyl)pyrrolidin-1-yl)-1'-methylspi ro(cyclopentane-1,6'-8-oxa-3-aza-4(6,1)-pyrazolo[4,3-c]pyridina-2(2,4)-pyrimidina-1(4,5)-pyrazolacyclooctaphane)] | – | – | – |
| 23.8 | 482 | 13.3 | CO[C@H]1CCN(c2nn3c4cc(ncc24)Nc2ccnc(n2)-c2cnn(C)c2OCC2(CCCC2)C3)C1 [Example 16, (S)-3'-(3-methoxypyrrolidin-1-yl)-1'-methylspiro(cyclopentane-1,6'-8-oxa-3-aza-4(6,1)-pyrazolo[4,3-c]pyridina-2(2,4)-pyrimidina-1(4,5)-pyrazolacyclooctaphane)] | – | – | – |
| 19.5 | 771 | 11.3 | COCC[C@H]1CCN(c2nn3c4cc(ncc24)Nc2ccnc(n2)-c2cnn(C)c2OCC2(CCCC2)C3)C1 [Example 19, (R)-3'-(3-(2-methoxyethyl)pyrrolidin-1-yl)-1'-methyls piro(cyclopentane-1,6'-8-oxa-3-aza-4(6,1)-pyrazolo[4,3-c]pyridina-2(2,4)-pyrimidina-1(4,5)-pyrazolacyclooctaphane)] | – | – | – |
